Results as given in the supplement of paper PMC10331698.
± gives the standard deviation of the averaged measurements.

Experiments:
Experiment in all cases: level (log10 ratio to DMSO vehicle control); higher = higher biomarker level / cell amount than vehicle control
Settings in all cases: in DMSO
[1] = compound: O=S(=O)(O)C(F)(F)C(F)(F)C(F)(F)C(F)(F)C(F)(F)C(F)(F)C(F)(F)C(F)(F)F [Perfluorooctanesulfonic acid]
Experimental: (§1)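 BioMAP Diversity Plus panel of 12 human primary cell co-culture systems (3C, 4H, LPS, SAg, BT, BF4T, BE3C, CASM3C, HDF3CGF, KF3CT, MyoF, Mphg). Compounds were added 1 h before stimulation and left for 24 h (MyoF 48 h; BT 72 h for soluble read-outs or 6 d for IgG). Biomarkers were read by ELISA, cytotoxicity by SRB, PBMC viability and proliferation by Alamar Blue. Each well value was divided by the mean of 8 DMSO control wells on the same plate and log10 transformed; duplicate blinded samples were tested at 4 concentrations.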

[2] = compound: O=C(O)CCC(F)(F)C(F)(F)C(F)(F)C(F)(F)C(F)(F)F [2H,2H,3H,3H-Perfluorooctanoic acid]
Experimental: as §1

[3] = compound: CNS(=O)(=O)C(F)(F)C(F)(F)C(F)(F)C(F)(F)C(F)(F)C(F)(F)C(F)(F)C(F)(F)F [N-Methylperfluorooctanesulfonamide]
Experimental: as §1

[4] = compound: CC(C)(C)C(=O)CC(=O)C(F)(F)C(F)(F)C(F)(F)F [(Heptafluorobutanoyl)pivaloylmethane]
Experimental: as §1

[5] = compound: O=C(O)C(F)(F)C(F)(F)C(F)(F)C(F)(F)C(F)(F)C(F)(F)C(F)(F)C(F)(F)C(F)(F)C(F)(F)C(F)(F)C(F)(F)C(F)(F)F [Perfluorotetradecanoic acid]
Experimental: as §1

[6] = compound: C=C(C)C(=O)OCC(F)(F)C(F)(F)C(F)(F)C(F)(F)C(F)(F)C(F)(F)C(F)(F)F
Experimental: as §1

Hexafluoroglutaric acid = compound: O=C(O)C(F)(F)C(F)(F)C(F)(F)C(=O)O [Hexafluoroglutaric acid]
Experimental: as §1

Test System | level (log10) ([1]; 6700 nM) | level (log10) ([1]; 20000 nM) | level (log10) ([1]; 60000 nM) | level (log10) ([2]; 6700 nM) | level (log10) ([2]; 20000 nM) | level (log10) ([2]; 60000 nM) | level (log10) ([3]; 6700 nM) | level (log10) ([3]; 20000 nM) | level (log10) ([3]; 60000 nM) | level (log10) ([4]; 6700 nM) | level (log10) ([4]; 20000 nM) | level (log10) ([4]; 60000 nM) | level (log10) ([5]; 6700 nM) | level (log10) ([5]; 20000 nM) | level (log10) ([6]; 6700 nM) | level (log10) ([6]; 20000 nM) | level (log10) (Hexafluoroglutaric acid; 6700 nM) | level (log10) (Hexafluoroglutaric acid; 20000 nM) | level (log10) (Hexafluoroglutaric acid; 60000 nM)
MyoF:Collagen IV | 0.0045 ± 0.039 | -0.0005 ± 0.005 | 0.037 ± 0.034 | -0.009 ± 0.021 | -0.0075 ± 0.026 | 0.0115 ± 0.023 | 0.228 ± 0.022 | 0.247 ± 0.024 | 0.273 ± 0.028 | -0.0345 ± 0.021 | -0.0295 ± 0.0092 | 0.0005 ± 0.0021 | -0.002 ± 0.0071 | 0.023 ± 0.016 | -0.0155 ± 0.0064 | 0.0195 ± 0.016 | -0.004 ± 0.013 | 0.002 ± 0.021 | -0.0055 ± 0.0064
CASM3C:CD142/Tissue Factor | -0.035 ± 0.02 | -0.033 ± 0.048 | -0.0525 ± 0.09 | -0.0115 ± 0.022 | -0.0505 ± 0.0092 | -0.0095 ± 0.022 | -0.025 ± 0.037 | -0.0115 ± 0.005 | 0.019 ± 0.011 | -0.017 ± 0.0057 | -0.0275 ± 0.0035 | -0.037 ± 0.027 | -0.005 ± 0.038 | -0.002 ± 0.041 | 0.002 ± 0.0057 | -0.0195 ± 0.0021 | 0.003 ± 0.033 | 0.0015 ± 0.005 | 0.0185 ± 0.021
CASM3C:CD141/Thrombomodulin | -0.007 ± 0.0085 | -0.0115 ± 0.0078 | -0.017 ± 0.031 | -0.01 ± 0.04 | -0.036 ± 0.052 | -0.014 | 0.0085 ± 0.019 | -0.028 ± 0.057 | -0.002 ± 0.044 | -0.008 ± 0.033 | -0.005 ± 0.018 | -0.038 ± 0.0042 | 0.0555 ± 0.064 | 0.056 ± 0.044 | 0.002 ± 0.048 | -0.0265 ± 0.035 | -0.008 ± 0.0099 | -0.0175 ± 0.0021 | 0.043 ± 0.065
lMphg:SRB | -0.002 ± 0.014 | -0.004 ± 0.018 | 0.009 ± 0.02 | -0.0025 ± 0.0035 | 0.001 ± 0.0014 | 0.007 ± 0.0085 | -0.021 ± 0.021 | -0.0155 ± 0.00071 | -0.0265 ± 0.00071 | -0.001 ± 0.0057 | -0.006 ± 0.0028 | 0.008 ± 0.016 | -0.0035 ± 0.0035 | -0.0105 ± 0.0078 | -0.012 ± 0.016 | -0.015 ± 0.016 | 0.0035 ± 0.00071 | 0.003 ± 0.0085 | -0.0045 ± 0.0035
KF3CT:CXCL8/IL-8 | -0.005 ± 0.0085 | -0.0135 ± 0.035 | -0.012 ± 0.035 | -0.017 ± 0.042 | -0.009 ± 0.028 | -0.0295 ± 0.0021 | -0.039 ± 0.041 | -0.158 ± 0.037 | -0.106 ± 0.02 | -0.015 ± 0.011 | -0.0165 ± 0.0078 | 0.016 ± 0.0014 | 0.0005 ± 0.013 | 0.0245 ± 0.025 | -0.0025 ± 0.019 | 0.009 ± 0.033 | -0.0115 ± 0.025 | -0.006 ± 0.0057 | -0.0135 ± 0.0021
lMphg:CCL3/MIP-1alpha | -0.0225 ± 0.011 | -0.007 | -0.0035 ± 0.0078 | 0.032 ± 0.052 | 0.0625 ± 0.081 | 0.0765 ± 0.053 | -0.023 ± 0.0014 | 0.0105 ± 0.029 | 0.034 ± 0.033 | -0.011 ± 0.021 | -0.0185 ± 0.013 | -0.067 ± 0.11 | -0.02 ± 0.042 | -0.004 ± 0.02 | -0.032 ± 0.0028 | 0.007 ± 0.045 | -0.0025 ± 0.0078 | 0.0125 ± 0.015 | -0.024 ± 0.052
